Experimental data reported in patent EP4644383A1 (Jiangsu Yahong Meditech Co., Ltd., priority 2022, dated 2024).

Assays:
Format in all cases: biochemical
[1] = target: T1, FGFR1 (Homo sapiens, UniProt P11362); test: FGFR1 kinase activity inhibition assay (LanthaScreen TR-FRET); details: FGFR1 kinase, TR-FRET; read-out: IC50 (nM) FGFR1
T1 construct: cytoplasmic domain [398-822 (terminal) amino acids]; purchased Carna 08-133
How it was run: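 Emission ratio 520 nm/495 nm by TR-FRET after stopping reaction with 10 mM EDTA and 60 min incubation at 22°C. Inhibition normalized between no-enzyme (min) and DMSO (max) controls, then fitted to a four-parameter curve (Top, Bottom, HillSlope).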

[2] = target: T2, FGFR2 (Homo sapiens, UniProt P21802); test: FGFR2 kinase activity inhibition assay (LanthaScreen TR-FRET); details: FGFR2 kinase, TR-FRET; read-out: IC50 (nM) FGFR2
T2 construct: FGFR2's cytoplasmic domain [399-821 (terminal) amino acids]; purchased Carna 08-134
How it was run: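 GST-fused FGFR2 cytoplasmic domain (aa 399-821) was run as in the FGFR1 protocol: preincubated 10 min at 23 °C with compound (3-fold series from 1 µM) in 50 mM HEPES pH 7.5, 10 mM MgCl2, 4 mM DTT, 1% DMSO. A 2× mix of 28 nM fluorescein-poly GT/28 µM ATP then reacted 30 min. Tb-PY20/EDTA quench preceded the TR-FRET 520/495 read.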

[3] = target: T3, FGFR3 (Homo sapiens, UniProt P22607); test: FGFR3 kinase activity inhibition assay (LanthaScreen TR-FRET); details: for IC50: FGFR3 kinase, TR-FRET, read-out: IC50 (nM) FGFR3; for Selectivity (X) FGFR1/FGFR3: ratio of IC50 FGFR1/FGFR3, selectivity towards FGFR3; for Selectivity (X) FGFR2/FGFR3: ratio of IC50 FGFR2/FGFR3, selectivity towards FGFR3; for Selectivity (X) FGFR4/FGFR3: ratio of IC50 FGFR4/FGFR3, selectivity towards FGFR3
T3 construct: FGFR3's cytoplasmic domain [436-806 (terminal) amino acids]; purchased Carna 08-135
How it was run: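 Read-out is TR-FRET, with the 520 nm/495 nm emission ratio normalised to DMSO (max) and enzyme-free (min) controls. Enzyme was the FGFR3 cytoplasmic domain, residues 436-806. EDTA (10 mM) stopped the reaction, followed by 60 min at 22 °C before reading.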

[4] = target: T4, FGFR4 (Homo sapiens, UniProt P22455); test: FGFR4 kinase activity inhibition assay (LanthaScreen TR-FRET); details: FGFR4 kinase, TR-FRET; read-out: IC50 (nM) FGFR4
T4 construct: FGFR4's cytoplasmic domain [460-802 (terminal) amino acids]; purchased Carna 08-136
Experimental: FGFR1 kinase activity was measured using Invitrogen LanthaScreen™ assay technology, which utilized fluorescently-labeled peptides and terbium-labeled antibodies to directly measure an amount of the phosphorylated substrate through time-resolved fluorescence energy transfer (TR-FRET). • ① The test compounds were diluted: starting from a concentration of 1 µM, with a buffer solution in a three-fold serial dilution, the buffer solution being composed of 50 mM HEPES, 10 mM MgCl2, 0.01% TritonX-100, 0.01% BSA, 4 mM DTT (pH 7.5), and 1% DMSO; • ② 0.01 nM recombinant human GST fusion protein FGFR1's cytoplasmic domain [398-822 (terminal) amino acids] (Carna: 08-133) was formulated into a 2 × solution, mixed well with the test compounds, and incubated at 23°C for 10 minutes; • ③ 28 nM Fluorescein-Poly GT peptide substrate (Life Technologies: PV3611) and 28 µM ATP were formulated into a 2 × solution, mixed well with the test compounds and enzyme in ②, and incubated at 23°C for 30 minutes; • ④ 10 µL of 2nM Tb-PY20 antibody (Life Technologies: PV3552) and 10 mM EDTA were added to quench the kinase reaction, and incubated at 22°C for 60 minutes. • ⑤ The reaction was measured using a PerkinElmer EnVision multimode plate reader through TR-FRET dual wavelength detection. • 1. The RFU values were copied from the Envision program. • 2. The ratio of RFU 520nm/RFU 495nm was calculated. • 3. The value of the ratio was converted to a percentage inhibition value. % Inhibition = (max-data)/(max-min) × 100 [formula]
"Min" represents the ratio of the control without enzyme, "max" represents the ratio of the DMSO control, and "data" represents the ratio of the compounds in wells with different concentrations.
"Top" refers to the maximum response, "Bottom" refers to the minimum response, and "HillSlope" refers to the slope of the curve.
According to the same method as that in the FGFR1 kinase activity inhibition assay, the inhibitory activities against FGFR2, FGFR3 and FGFR4 were tested using FGFR2's cytoplasmic domain [399-821 (terminal) amino acids] (Carna: 08-134), FGFR3's cytoplasmic domain [436-806 (terminal) amino acids] (Carna: 08-135) and FGFR4's cytoplasmic domain [460-802 (terminal) amino acids] (Carna: 08-136), respectively. Table 1 reports the kinase activity inhibition results and selectivity towards FGFR3 of each compound.

T1 sequence (P11362 398-822): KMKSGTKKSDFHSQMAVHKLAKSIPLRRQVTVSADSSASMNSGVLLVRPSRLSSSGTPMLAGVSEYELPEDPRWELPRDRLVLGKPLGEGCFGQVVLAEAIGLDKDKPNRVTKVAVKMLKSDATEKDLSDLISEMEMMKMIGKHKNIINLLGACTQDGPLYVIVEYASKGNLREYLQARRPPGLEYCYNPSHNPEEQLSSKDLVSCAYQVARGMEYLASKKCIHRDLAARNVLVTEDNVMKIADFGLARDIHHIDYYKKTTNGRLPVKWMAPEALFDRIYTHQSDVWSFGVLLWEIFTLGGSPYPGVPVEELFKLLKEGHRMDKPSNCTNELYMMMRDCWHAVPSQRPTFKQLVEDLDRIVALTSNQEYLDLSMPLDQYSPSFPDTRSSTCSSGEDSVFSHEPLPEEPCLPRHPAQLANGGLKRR
T2 sequence (P21802 399-821): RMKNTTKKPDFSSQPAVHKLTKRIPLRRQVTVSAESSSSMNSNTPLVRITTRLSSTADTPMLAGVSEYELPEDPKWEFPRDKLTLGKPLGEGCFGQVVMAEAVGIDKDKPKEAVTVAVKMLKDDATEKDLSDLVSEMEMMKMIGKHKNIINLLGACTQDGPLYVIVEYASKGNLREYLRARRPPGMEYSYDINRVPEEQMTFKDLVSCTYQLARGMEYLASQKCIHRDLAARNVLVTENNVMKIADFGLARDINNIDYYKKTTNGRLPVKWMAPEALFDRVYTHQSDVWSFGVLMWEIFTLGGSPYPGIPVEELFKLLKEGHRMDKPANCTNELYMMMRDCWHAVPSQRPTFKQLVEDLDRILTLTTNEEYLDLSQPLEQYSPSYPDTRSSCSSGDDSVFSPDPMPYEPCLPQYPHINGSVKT
T4 sequence (P22455 460-802): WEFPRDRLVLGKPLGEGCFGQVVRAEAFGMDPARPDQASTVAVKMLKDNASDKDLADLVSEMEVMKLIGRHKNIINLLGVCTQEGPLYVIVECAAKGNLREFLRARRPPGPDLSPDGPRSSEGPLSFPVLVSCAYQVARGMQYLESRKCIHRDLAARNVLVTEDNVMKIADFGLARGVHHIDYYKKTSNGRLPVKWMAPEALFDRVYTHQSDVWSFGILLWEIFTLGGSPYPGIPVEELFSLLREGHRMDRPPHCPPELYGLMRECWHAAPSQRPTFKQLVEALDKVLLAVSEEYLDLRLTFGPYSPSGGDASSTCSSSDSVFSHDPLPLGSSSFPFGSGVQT
T3 sequence (P22607 436-806): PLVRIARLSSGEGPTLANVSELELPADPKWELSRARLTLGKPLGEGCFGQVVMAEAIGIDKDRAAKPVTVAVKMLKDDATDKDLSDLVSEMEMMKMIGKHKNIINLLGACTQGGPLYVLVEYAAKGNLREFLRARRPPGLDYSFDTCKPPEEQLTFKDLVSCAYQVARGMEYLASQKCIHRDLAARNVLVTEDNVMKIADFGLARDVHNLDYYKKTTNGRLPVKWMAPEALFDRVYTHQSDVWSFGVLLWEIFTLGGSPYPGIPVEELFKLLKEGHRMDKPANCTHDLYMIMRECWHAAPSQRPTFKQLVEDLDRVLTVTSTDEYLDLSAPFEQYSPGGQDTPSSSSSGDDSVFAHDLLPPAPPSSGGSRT

Row | IC50 [1] [nM] | IC50 [2] [nM] | IC50 [3] [nM] | Selectivity (X) FGFR1/FGFR3 [3] | Selectivity (X) FGFR2/FGFR3 [3] | Selectivity (X) FGFR4/FGFR3 [3] | IC50 [4] [nM] | Compound
1 | 10 to 100 | 1 to 10 | < 1 | B (B represents 20 ≤ multiple X<50) | A (A represents 1 ≤ multiple X<20) | B (B represents 20 ≤ multiple X<50) | 10 to 100 | [2H]C([2H])([2H])C(Oc1ccc2[nH]nc(-c3cnn(C)c3)c2c1)c1c(C)ccc2ncccc12 (stereo not shown) [Example 122, 6-methyl-5-(1-((3-(1-methyl-1H-pyrazol-4-yl)-1H-indazol-5-yl)oxy)ethyl-2,2,2-d3)quinoline]
2 | 10 to 100 | 1 to 10 | < 1 | B (B represents 20 ≤ multiple X<50) | A (A represents 1 ≤ multiple X<20) | B (B represents 20 ≤ multiple X<50) | 10 to 100 | CC(Oc1ccc2[nH]nc(-c3cnn(C)c3)c2c1)c1cc(F)cc2ncccc12 (stereo not shown) [Example 124, 7-fluoro-5-(1-((3-(1-methyl-1H-pyrazol-4-yl)-1H-indazol-5-yl)oxy)ethyl)qu inoline]
3 | 10 to 100 | 1 to 10 | 1 to 10 | B (B represents 20 ≤ multiple X<50) | A (A represents 1 ≤ multiple X<20) | B (B represents 20 ≤ multiple X<50) | 10 to 100 | CC(Nc1ccc2[nH]nc(-c3cnn(C)c3)c2c1)c1cccc2nccnc12 (stereo not shown) [Example 135, 3-(1-methyl-1H-pyrazol-4-yl)-N-(1-(quinoxalin-5-yl)ethyl)-1H-indazole-5-amine]
4 | 10 to 100 | 1 to 10 | < 1 | C (C represents 50 ≤ multiple X<100) | A (A represents 1 ≤ multiple X<20) | C (C represents 50 ≤ multiple X<100) | 10 to 100 | CCc1cc(C(C)Oc2ccc3[nH]nc(-c4cnn(C)c4)c3c2)c2nccnc2c1 (stereo not shown) [Example 138, 7-ethyl-5-(1-((3-(1-methyl-1H-pyrazol-4-yl)-1H-indazol-5-yl)oxy)ethyl)quinoxaline]
5 | 1 to 10 | 1 to 10 | < 1 | A (A represents 1 ≤ multiple X<20) | A (A represents 1 ≤ multiple X<20) | B (B represents 20 ≤ multiple X<50) | 10 to 100 | Cc1cc(C(C)Oc2ccc3[nH]nc(-c4cnn(C)c4)c3c2)c2nccnc2c1 (stereo not shown) [Example 140, 7-methyl-5-(1-((3-(1-methyl-1H-pyrazol-4-yl)-1H-indazol-5-yl)oxy)ethyl)qu inoxaline]

More lines, now with the values behind:

Row | Compound | IC50 [1] [nM] | IC50 [2] [nM] | IC50 [3] [nM] | Selectivity (X) FGFR1/FGFR3 [3] | Selectivity (X) FGFR2/FGFR3 [3] | Selectivity (X) FGFR4/FGFR3 [3] | IC50 [4] [nM]
6 | CC(Oc1ccc2[nH]nc(-c3cnn(C)c3)c2c1)c1c(C2CC2)ccc2ncccc12 (stereo not shown) [Example 116, 6-cyclopropyl-5-(1-((3-(1-methyl-1H-pyrazol-4-yl)-1H-indazol-5-yl)oxy)ethyl)qui noline] | 10 to 100 | 10 to 100 | 1 to 10 | B (B represents 20 ≤ multiple X<50) | A (A represents 1 ≤ multiple X<20) | B (B represents 20 ≤ multiple X<50) | > 100
7 | CC(Oc1ccc2[nH]nc(-c3cnn(C)c3)c2c1)c1cccc2nnccc12 (stereo not shown) [Example 119, 5-(1-((3-(1-methyl-1H-pyrazol-4-yl)-1H-indazol-5-yl)oxy)ethyl)cinnoline] | 10 to 100 | 1 to 10 | 1 to 10 | B (B represents 20 ≤ multiple X<50) | A (A represents 1 ≤ multiple X<20) | B (B represents 20 ≤ multiple X<50) | 10 to 100
8 | Cc1ccnc2cccc(C(C)Oc3ccc4[nH]nc(-c5cnn(C)c5)c4c3)c12 (stereo not shown) [Example 126, 4-methyl-5-(1-((3-(1-methyl-1H-pyrazol-4-yl)-1H-indazol-5-yl)oxy)ethyl)qu inoline] | 10 to 100 | 1 to 10 | 1 to 10 | B (B represents 20 ≤ multiple X<50) | A (A represents 1 ≤ multiple X<20) | C (C represents 50 ≤ multiple X<100) | > 100
9 | CC(Oc1ccc2[nH]nc(-c3cnn(C)c3)c2c1)c1cccn2nccc12 (stereo not shown) [Example 132, 3-(1-methyl-1H-pyrazol-4-yl)-5-(1-(pyrazolo[1,5-a]pyridin-4-yl)ethoxy)-1H-indazole] | 10 to 100 | 1 to 10 | < 1 | B (B represents 20 ≤ multiple X<50) | A (A represents 1 ≤ multiple X<20) | B (B represents 20 ≤ multiple X<50) | 10 to 100
10 | Cc1cc(C(C)Oc2ccc3[nH]nc(-c4cnn(C)c4)c3c2)c2cccnc2c1 (stereo not shown) [Example 133, 7-methyl-5-(1-((3-(1-methyl-1H-pyrazol-4-yl)-1H-indazol-5-yl)oxy)ethyl)qu inoline] | 10 to 100 | 1 to 10 | < 1 | B (B represents 20 ≤ multiple X<50) | A (A represents 1 ≤ multiple X<20) | D (D represents 100 ≤ multiple X) | > 100
11 | CC(Oc1ccc2[nH]nc(-c3cnn(C)c3)c2c1)c1cc(Cl)cc2ncccc12 (stereo not shown) [Example 134, 7-chloro-5-(1-((3-(1-methyl-1H-pyrazol-4-yl)-1H-indazol-5-yl)oxy)ethyl)qu inoline] | > 100 | 10 to 100 | 1 to 10 | C (C represents 50 ≤ multiple X<100) | A (A represents 1 ≤ multiple X<20) | D (D represents 100 ≤ multiple X) | > 100
12 | CC(Oc1ccc2[nH]nc(-c3cnn(C)c3)c2c1)c1cc(F)cc2nccnc12 (stereo not shown) [Example 142, 7-fluoro-5-(1-((3-(1-methyl-1H-pyrazol-4-yl)-1H-indazol-5-yl)oxy)ethyl)qu inoxaline] | 1 to 10 | 1 to 10 | < 1 | A (A represents 1 ≤ multiple X<20) | A (A represents 1 ≤ multiple X<20) | B (B represents 20 ≤ multiple X<50) | 10 to 100
13 | Cc1ccn2nccc2c1C(C)Oc1ccc2[nH]nc(-c3cnn(C)c3)c2c1 (stereo not shown) [Example 155, 3-(1-methyl-1H-pyrazol-4-yl)-5-(1-(5-methylpyrazolo [1,5-a]pyridin-4-yl)ethoxy)-1H-indazole] | 10 to 100 | 1 to 10 | < 1 | B (B represents 20 ≤ multiple X<50) | A (A represents 1 ≤ multiple X<20) | B (B represents 20 ≤ multiple X<50) | 10 to 100
